{"source": "patent US8399515B2", "about": "“Five and fifteen carbon fatty acids for treating metabolic disorders and as nutritional supplements” (Baylor Research Institute, priority 2003, dated 2013)", "assay_type_in_all_cases": "cell-based, human", "key": {"[1]": {"tested_on": "fibroblasts from patients with Mitochondrial Trifunctional Protein (MTP) deficiency", "assay": "Propionylcarnitine from oxidation of odd-carbon fatty acids in MTP fibroblasts", "settings": "MTP fibroblasts, one line per patient, 72 hours incubation", "procedure": "(§1) Fibroblasts obtained from patients with inherited defects of mitochondrial fat oxidation were cultured in the presence of omega deuterated odd-carbon numbered fatty acids, as described in Roe, C. R., Sweetman, L., Roe, D. S., David, F., Brunengraber, H., “Effective Dietary Treatment of Cardiomyopathy & Rhabdomyolysis in Long-Chain Fat Oxidation Disorders using an Anaplerotic Odd-Chain Triglyceride,” J. Clin. Invest. 110 (2): 259-269 (2002).\n(§2) The data in Table 1 represents testing of cultured fibroblasts derived from ten patients afflicted with Very-long-chain acyl-CoA dehydrogenase (VLCAD) deficiency (six patients with the severe cardiac form and four with the non-cardiac milder phenotype), two patients with Mitochondrial Trifunctional Protein (MTP) deficiency, five patients having L-3-hydroxy-acyl-CoA dehydrogenase (LCHAD) deficiency and three patients with Short-chain acyl-CoA dehydrogenase (SCAD) deficiency."}, "[2]": {"tested_on": "fibroblasts from patients with inherited defects of mitochondrial fat oxidation", "assay": "Propionylcarnitine production in all fat-oxidation-defective fibroblast cell lines (comparison in words)", "settings": "all VLCAD, MTP, LCHAD, SCAD cell lines; C5 versus C7; C15 versus C5 or C7", "procedure": "as §1, §2"}, "[3]": {"tested_on": "fibroblasts from patients with Very-long-chain acyl-CoA dehydrogenase (VLCAD) deficiency, severe cardiac form", "assay": "Propionylcarnitine from oxidation of odd-carbon fatty acids in VLCAD (cardiac) fibroblasts", "settings": "VLCAD cardiac fibroblasts, one line per patient, 72 hours incubation", "procedure": "as §1, §2"}, "[4]": {"tested_on": "MCAD-deficient fibroblasts", "assay": "Fate of odd-carbon fatty acids in MCAD-deficient fibroblasts", "set-up": "*C3 acylcarnitine / *C5 acylcarnitine / *C7 acylcarnitine / *C9 acylcarnitine / *C11 acylcarnitine / *C13 acylcarnitine / *C15 acylcarnitine: unit not given here", "settings": "for *C3 acylcarnitine / *C5 acylcarnitine / *C7 acylcarnitine / *C9 acylcarnitine / *C11 acylcarnitine / *C13 acylcarnitine / *C15 acylcarnitine: MCAD fibroblasts, N 4"}, "[5]": {"tested_on": "fibroblasts from MCAD heterozygote (carrier)", "assay": "Fate of odd-carbon fatty acids in MCAD carrier fibroblasts", "set-up": "unit not given here", "procedure": "as §1\nFibroblasts from four patients with MCAD deficiency and one heterozygote (carrier) indicate that odd-carbon fatty acids containing more than seven carbons can not be effectively used in that disease. […] That any C3 was produced is presumably due to overlapping"}, "[6]": {"tested_on": "fibroblasts from patients with L-3-hydroxy-acyl-CoA dehydrogenase (LCHAD) deficiency", "assay": "Propionylcarnitine from oxidation of odd-carbon fatty acids in LCHAD fibroblasts", "settings": "LCHAD fibroblasts, one line per patient, 72 hours incubation", "procedure": "as §1, §2"}, "[7]": {"tested_on": "control / normal fibroblasts", "assay": "Fate of odd-carbon fatty acids in control (normal) fibroblasts", "set-up": "*C3 acylcarnitine / *C5 acylcarnitine / *C7 acylcarnitine / *C9 acylcarnitine / *C11 acylcarnitine / *C13 acylcarnitine / *C15 acylcarnitine: unit not given here", "procedure": "Fibroblasts obtained from patients with inherited defects of mitochondrial fat oxidation were cultured in the presence of omega deuterated odd-carbon numbered fatty acids, as described in Roe, C. R., Sweetman, L., Roe, D. S., David, F., Brunengraber, H., “Effective Dietary Treatment of Cardiomyopathy & Rhabdomyolysis in Long-Chain Fat Oxidation Disorders using an Anaplerotic Odd-Chain Triglyceride,” J. Clin. Invest. 110 (2): 259-269 (2002). […]"}, "[8]": {"tested_on": "fibroblasts from patients with VLCAD deficiency, non-cardiac milder phenotype", "assay": "Propionylcarnitine from oxidation of odd-carbon fatty acids in VLCAD (non-cardiac) fibroblasts", "settings": "VLCAD non-cardiac fibroblasts, one line per patient, 72 hours incubation", "procedure": "as §1, §2"}, "[9]": {"tested_on": "fibroblasts from patients with Short-chain acyl-CoA dehydrogenase (SCAD) deficiency", "assay": "Propionylcarnitine from oxidation of odd-carbon fatty acids in SCAD fibroblasts", "settings": "SCAD fibroblasts, one line per patient, 72 hours incubation", "procedure": "as §1, §2"}}, "note": "Where “and” joins values, the source holds several entries; their conditions need not be identical. Equal values may be shown once.", "data": [{"smiles": "CCCCCCCCCCCCCCC(=O)O", "note": "[C15, n-pentadecanoic acid]", "values": [{"measurement": "Propionylcarnitine from oxidation of fatty acid", "setting": "[1]", "result": "31.4 nmol/mg Protein/72 hours and 46.5 nmol/mg Protein/72 hours"}, {"measurement": "Quantity of propionylcarnitine produced, compared with the other odd-carbon fatty acids", "setting": "[2]", "result": "less propionylcamitine"}, {"measurement": "Propionylcarnitine from oxidation of fatty acid", "setting": "[3]", "result": "11.7 nmol/mg Protein/72 hours and 5.3 nmol/mg Protein/72 hours and 21.6 nmol/mg Protein/72 hours and 8.0 nmol/mg Protein/72 hours and 6.6 nmol/mg Protein/72 hours and 9.9 nmol/mg Protein/72 hours"}, {"measurement": "*C3 acylcarnitine", "setting": "[4]; Maximum", "result": 19.6}, {"measurement": "*C5 acylcarnitine", "setting": "[4]; Maximum", "result": 1.6}, {"measurement": "*C7 acylcarnitine", "setting": "[4]; Maximum", "result": 9.9}, {"measurement": "*C9 acylcarnitine", "setting": "[4]; Maximum", "result": 17.5}, {"measurement": "*C11 acylcarnitine", "setting": "[4]; Maximum", "result": 1.0}, {"measurement": "*C13 acylcarnitine", "setting": "[4]; Maximum", "result": 0.9}, {"measurement": "*C15 acylcarnitine", "setting": "[4]; Maximum", "result": 4.7}, {"measurement": "*C3 acylcarnitine", "setting": "[4]; Mean", "result": 9.8}, {"measurement": "*C5 acylcarnitine", "setting": "[4]; Mean", "result": 1.2}, {"measurement": "*C7 acylcarnitine", "setting": "[4]; Mean", "result": 6.5}, {"measurement": "*C9 acylcarnitine", "setting": "[4]; Mean", "result": 10.9}, {"measurement": "*C11 acylcarnitine", "setting": "[4]; Mean", "result": 0.7}, {"measurement": "*C13 acylcarnitine", "setting": "[4]; Mean", "result": 0.4}, {"measurement": "*C15 acylcarnitine", "setting": "[4]; Mean", "result": 2.6}, {"measurement": "*C3 acylcarnitine", "setting": "[4]; Minimum", "result": 3.1}, {"measurement": "*C5 acylcarnitine", "setting": "[4]; Minimum", "result": 0.5}, {"measurement": "*C7 acylcarnitine", "setting": "[4]; Minimum", "result": 3.5}, {"measurement": "*C9 acylcarnitine", "setting": "[4]; Minimum", "result": 4.3}, {"measurement": "*C11 acylcarnitine", "setting": "[4]; Minimum", "result": 0.3}, {"measurement": "*C13 acylcarnitine", "setting": "[4]; Minimum", "result": 0.0}, {"measurement": "*C15 acylcarnitine", "setting": "[4]; Minimum", "result": 1.0}, {"measurement": "Propionylcarnitine from odd carbon precursor", "setting": "[4]; MCAD-1 fibroblast cell line", "result": 6.9, "unit": "nmol/mg Protein/72 hours"}, {"measurement": "Propionylcarnitine from odd carbon precursor", "setting": "[4]; MCAD-2 fibroblast cell line", "result": 19.6, "unit": "nmol/mg Protein/72 hours"}, {"measurement": "Oxidation of the fatty acid in MCAD deficient fibroblasts (in words)", "setting": "[4]; four MCAD patients' fibroblasts", "result": "a block in oxidation at C9 & C7"}, {"measurement": "*C3 acylcarnitine", "setting": "[5]", "result": 33.5}, {"measurement": "*C5 acylcarnitine", "setting": "[5]", "result": 1.7}, {"measurement": "*C7 acylcarnitine", "setting": "[5]", "result": 0.6}, {"measurement": "*C9 acylcarnitine", "setting": "[5]", "result": 1.7}, {"measurement": "*C11 acylcarnitine", "setting": "[5]", "result": 0.5}, {"measurement": "*C13 acylcarnitine", "setting": "[5]", "result": 0.2}, {"measurement": "*C15 acylcarnitine", "setting": "[5]", "result": 1.9}, {"measurement": "Propionylcarnitine from oxidation of fatty acid", "setting": "[6]", "result": "34.6 nmol/mg Protein/72 hours and 15.1 nmol/mg Protein/72 hours and 15.9 nmol/mg Protein/72 hours and 6.9 nmol/mg Protein/72 hours and 13.9 nmol/mg Protein/72 hours"}, {"measurement": "*C3 acylcarnitine", "setting": "[7]; CONTROL MEAN, N = 4", "result": 46.8}, {"measurement": "*C5 acylcarnitine", "setting": "[7]; CONTROL MEAN, N = 4", "result": 2.8}, {"measurement": "*C7 acylcarnitine", "setting": "[7]; CONTROL MEAN, N = 4", "result": 0.8}, {"measurement": "*C9 acylcarnitine", "setting": "[7]; CONTROL MEAN, N = 4", "result": 2.2}, {"measurement": "*C11 acylcarnitine", "setting": "[7]; CONTROL MEAN, N = 4", "result": 0.9}, {"measurement": "*C13 acylcarnitine", "setting": "[7]; CONTROL MEAN, N = 4", "result": 0.7}, {"measurement": "*C15 acylcarnitine", "setting": "[7]; CONTROL MEAN, N = 4", "result": 3.8}, {"measurement": "Propionylcarnitine from odd carbon precursor", "setting": "[7]; NORMAL fibroblasts", "result": 46.8, "unit": "nmol/mg Protein/72 hours"}, {"measurement": "Boosting the production of propionyl-CoA (in words)", "setting": "[7]; normal cells, compared with C7 or C5", "result": "more effective in normal cells"}, {"measurement": "Propionylcarnitine from oxidation of fatty acid", "setting": "[8]", "result": "16.4 nmol/mg Protein/72 hours and 19.2 nmol/mg Protein/72 hours and 36.0 nmol/mg Protein/72 hours and 11.5 nmol/mg Protein/72 hours"}, {"measurement": "Propionylcarnitine from oxidation of fatty acid", "setting": "[9]", "result": "56.7 nmol/mg Protein/72 hours and 30.3 nmol/mg Protein/72 hours and 37.6 nmol/mg Protein/72 hours"}]}]}
